± gives the expanded uncertainty stated by the source.
Details: for mass density / kinematic viscosity / speed of sound / vapor or sublimation pressure: Liquid; for mass density: Vibrating tube method; for kinematic viscosity / speed of sound: 101.33 kPa; for kinematic viscosity: Capillary tube (Ostwald / Ubbelohde) method; for speed of sound: Sing-around technique in a fixed-path interferometer; for vapor or sublimation pressure: Ebulliometric method (Recirculating still); for surface tension liquid-gas: Drop volume

Cc1ccc(C)o1 [2,5-dimethylfuran]
Details	mass density [kg/m3]
313.15 K, 100 kPa	879.93 ± 0.29
313.15 K, 2500 kPa	882.45 ± 0.3
313.15 K, 5000 kPa	885.02 ± 0.31
313.15 K, 7500 kPa	887.51 ± 0.31
313.15 K, 10000 kPa	889.95 ± 0.32
313.15 K, 20000 kPa	899.05 ± 0.35
313.15 K, 30000 kPa	907.41 ± 0.37
313.15 K, 40000 kPa	915.12 ± 0.39
313.15 K, 50000 kPa	922.3 ± 0.4
313.15 K, 60000 kPa	928.9 ± 0.41
315.65 K, 99 kPa	877.195 ± 0.23
318.15 K, 99 kPa	874.437 ± 0.23
318.15 K, 100 kPa	874.44 ± 0.29
318.15 K, 2500 kPa	877.03 ± 0.3
318.15 K, 5000 kPa	879.68 ± 0.31
318.15 K, 7500 kPa	882.27 ± 0.31
318.15 K, 10000 kPa	884.79 ± 0.32
318.15 K, 20000 kPa	894.18 ± 0.35
318.15 K, 30000 kPa	902.74 ± 0.37
318.15 K, 40000 kPa	910.6 ± 0.39
318.15 K, 50000 kPa	917.91 ± 0.41
318.15 K, 60000 kPa	924.74 ± 0.42
320.65 K, 99 kPa	871.651 ± 0.23
323.15 K, 99 kPa	868.85 ± 0.23
323.15 K, 100 kPa	868.85 ± 0.29
323.15 K, 2500 kPa	871.55 ± 0.3
323.15 K, 5000 kPa	874.3 ± 0.31
323.15 K, 7500 kPa	876.94 ± 0.32
323.15 K, 10000 kPa	879.54 ± 0.32
323.15 K, 20000 kPa	889.25 ± 0.35
323.15 K, 30000 kPa	898.07 ± 0.38
323.15 K, 40000 kPa	906.13 ± 0.4
323.15 K, 50000 kPa	913.67 ± 0.41
323.15 K, 60000 kPa	920.58 ± 0.43
325.65 K, 99 kPa	866.06 ± 0.23
328.15 K, 99 kPa	863.248 ± 0.23
328.15 K, 100 kPa	863.25 ± 0.29
328.15 K, 2500 kPa	866.05 ± 0.3
328.15 K, 5000 kPa	868.91 ± 0.31
328.15 K, 7500 kPa	871.68 ± 0.32
328.15 K, 10000 kPa	874.38 ± 0.32
328.15 K, 20000 kPa	884.36 ± 0.35
328.15 K, 30000 kPa	893.38 ± 0.38
328.15 K, 40000 kPa	901.61 ± 0.4
328.15 K, 50000 kPa	909.29 ± 0.42
328.15 K, 60000 kPa	916.43 ± 0.44
330.65 K, 99 kPa	860.418 ± 0.23
333.15 K, 99 kPa	857.577 ± 0.23
333.15 K, 100 kPa	857.58 ± 0.29
333.15 K, 2500 kPa	860.47 ± 0.3
333.15 K, 5000 kPa	863.42 ± 0.31
333.15 K, 7500 kPa	866.28 ± 0.32
333.15 K, 10000 kPa	869.07 ± 0.33
333.15 K, 20000 kPa	879.4 ± 0.36
333.15 K, 30000 kPa	888.7 ± 0.38
333.15 K, 40000 kPa	897.22 ± 0.41
333.15 K, 50000 kPa	905.17 ± 0.43
333.15 K, 60000 kPa	912.4 ± 0.44
335.65 K, 99 kPa	854.721 ± 0.23
338.15 K, 99 kPa	851.85 ± 0.24
338.15 K, 100 kPa	851.85 ± 0.29
338.15 K, 2500 kPa	854.88 ± 0.3
338.15 K, 5000 kPa	857.96 ± 0.31
338.15 K, 7500 kPa	860.93 ± 0.32
338.15 K, 10000 kPa	863.81 ± 0.33
338.15 K, 20000 kPa	874.45 ± 0.36
338.15 K, 30000 kPa	884.02 ± 0.39
338.15 K, 40000 kPa	892.61 ± 0.41
338.15 K, 50000 kPa	900.74 ± 0.43
338.15 K, 60000 kPa	908.17 ± 0.45

Details	kinematic viscosity [m2/s]	speed of sound [m/s]	surface tension liquid-gas [mN/m]	vapor or sublimation pressure [kPa]
313.15 K	4.57e-07 ± 9.9e-09	1130.7 ± 1.5	–	–
314.61 K	–	–	–	14.8 ± 0.2
315.65 K	4.5e-07 ± 9.7e-09	1121.2 ± 1.5	22.7 ± 0.21	–
318.15 K	4.4e-07 ± 9.5e-09	1109.5 ± 1.5	22.29 ± 0.21	–
319.27 K	–	–	–	18.09 ± 0.2
320.65 K	4.3e-07 ± 9.3e-09	1100 ± 1.5	21.97 ± 0.21	–
323.15 K	4.23e-07 ± 9.2e-09	1088.5 ± 1.5	21.69 ± 0.21	–
324.99 K	–	–	–	22.86 ± 0.2
325.65 K	4.12e-07 ± 8.9e-09	1078.7 ± 1.5	21.29 ± 0.2	–
328.09 K	–	–	–	26.07 ± 0.2
328.15 K	4.03e-07 ± 8.7e-09	1067.6 ± 1.5	20.95 ± 0.2	–
330.65 K	3.95e-07 ± 8.6e-09	1057.5 ± 1.5	20.58 ± 0.2	–
332.43 K	–	–	–	30.95 ± 0.2
333.15 K	3.89e-07 ± 8.4e-09	1046.9 ± 1.5	20.34 ± 0.2	–
335.48 K	–	–	–	34.85 ± 0.2
335.65 K	3.8e-07 ± 8.2e-09	1036.2 ± 1.5	20.01 ± 0.2	–
338.15 K	3.72e-07 ± 8.1e-09	1029.2 ± 1.5	19.65 ± 0.2	–
338.4 K	–	–	–	38.81 ± 0.21
340.95 K	–	–	–	42.52 ± 0.21
343.11 K	–	–	–	46.09 ± 0.21
345.85 K	–	–	–	50.77 ± 0.21
348.13 K	–	–	–	55.05 ± 0.21
350.87 K	–	–	–	60.51 ± 0.21
352.82 K	–	–	–	64.61 ± 0.21
354.3 K	–	–	–	68.12 ± 0.22
356.1 K	–	–	–	72.15 ± 0.22
357.87 K	–	–	–	76.61 ± 0.22
359.42 K	–	–	–	80.63 ± 0.22
361.09 K	–	–	–	85.02 ± 0.22
362.46 K	–	–	–	88.86 ± 0.23
363.39 K	–	–	–	91.39 ± 0.23
364.36 K	–	–	–	94.28 ± 0.23
365.26 K	–	–	–	97.05 ± 0.23
366.7 K	–	–	–	101.33 ± 0.23
